Laboratory results as given in ChEMBL document CHEMBL5108056, “Discovery of Isoform-Selective Akt3 Degraders Overcoming Osimertinib-Induced Resistance in Non-Small Cell Lung Cancer Cells” (J Med Chem, 2022).
Calls of active or inactive are those of the source. The calls are words filed in the database; no cut-off is given here.

Experiments:
[1] = molecular target: RAC-beta serine/threonine-protein kinase (Homo sapiens, UniProt P31751); assay: Induction of AKT2 degradation in human NCI-H1975 cells assessed as reduction in AKT2 protein level incubated for 24 hrs under serum free medium by Western blot analysis; assay type: cell-based
Sequence of RAC-beta serine/threonine-protein kinase (P31751 whole entry): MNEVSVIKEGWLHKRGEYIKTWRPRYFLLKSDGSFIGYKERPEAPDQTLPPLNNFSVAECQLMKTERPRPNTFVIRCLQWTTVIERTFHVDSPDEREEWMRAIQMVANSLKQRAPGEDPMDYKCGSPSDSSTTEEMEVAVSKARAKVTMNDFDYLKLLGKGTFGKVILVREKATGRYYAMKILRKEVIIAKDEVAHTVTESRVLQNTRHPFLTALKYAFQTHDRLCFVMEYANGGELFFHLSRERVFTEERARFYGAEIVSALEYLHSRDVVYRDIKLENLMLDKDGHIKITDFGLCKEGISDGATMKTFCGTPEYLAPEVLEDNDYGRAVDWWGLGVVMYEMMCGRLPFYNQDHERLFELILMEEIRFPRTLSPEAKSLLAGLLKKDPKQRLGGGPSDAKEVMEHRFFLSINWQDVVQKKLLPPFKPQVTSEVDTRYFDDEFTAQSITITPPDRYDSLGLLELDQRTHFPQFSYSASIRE

[2] = molecular target: T1, RAC-gamma serine/threonine-protein kinase (Homo sapiens, UniProt Q9Y243); assay: Induction of AKT3 degradation in human NCI-H1975 cells assessed as reduction in AKT3 protein level at 1000 nM incubated for 24 hrs under serum free medium by Western blot analysis relative to control; assay type: cell-based
T1 sequence (Q9Y243 whole entry): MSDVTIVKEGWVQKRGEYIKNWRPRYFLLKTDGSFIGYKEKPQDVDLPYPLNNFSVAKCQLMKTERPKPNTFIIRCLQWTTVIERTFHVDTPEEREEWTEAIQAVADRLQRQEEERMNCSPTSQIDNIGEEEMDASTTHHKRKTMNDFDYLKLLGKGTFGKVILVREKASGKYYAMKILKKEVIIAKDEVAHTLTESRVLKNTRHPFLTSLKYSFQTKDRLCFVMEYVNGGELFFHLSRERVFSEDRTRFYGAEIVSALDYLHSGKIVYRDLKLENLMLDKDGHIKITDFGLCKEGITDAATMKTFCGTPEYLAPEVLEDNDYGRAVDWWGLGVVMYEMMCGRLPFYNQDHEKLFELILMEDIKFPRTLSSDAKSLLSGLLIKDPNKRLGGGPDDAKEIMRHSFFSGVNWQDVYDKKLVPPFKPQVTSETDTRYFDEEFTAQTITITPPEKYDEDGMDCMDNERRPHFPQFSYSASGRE

[3] = molecular target: T2, RAC-alpha serine/threonine-protein kinase (Homo sapiens, UniProt P31749); assay: Induction of AKT1 degradation in human NCI-H1975 cells assessed as reduction in AKT1 protein level incubated for 24 hrs under serum free medium by Western blot analysis; assay type: cell-based
T2 sequence (P31749 whole entry): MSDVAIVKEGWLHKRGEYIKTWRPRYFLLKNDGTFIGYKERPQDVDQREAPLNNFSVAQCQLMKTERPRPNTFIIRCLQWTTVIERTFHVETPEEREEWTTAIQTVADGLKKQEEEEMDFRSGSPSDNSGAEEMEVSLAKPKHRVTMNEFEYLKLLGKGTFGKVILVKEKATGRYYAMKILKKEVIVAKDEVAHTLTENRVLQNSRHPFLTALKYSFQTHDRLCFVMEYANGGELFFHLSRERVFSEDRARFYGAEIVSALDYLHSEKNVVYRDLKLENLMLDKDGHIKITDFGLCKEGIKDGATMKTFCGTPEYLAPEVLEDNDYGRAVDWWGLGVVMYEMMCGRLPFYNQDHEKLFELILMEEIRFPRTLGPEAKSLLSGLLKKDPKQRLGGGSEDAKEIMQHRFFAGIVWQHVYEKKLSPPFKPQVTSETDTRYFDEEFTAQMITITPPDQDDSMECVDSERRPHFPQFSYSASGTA

[4] = molecular target: T1, RAC-gamma serine/threonine-protein kinase; assay: Induction of AKT3 degradation in human NCI-H1975 cells assessed as reduction in AKT3 protein level incubated for 24 hrs under serum free medium by Western blot analysis; assay type: cell-based
NCI-H1975 = assay: Antiproliferative activity against human osimertinib resistant NCI-H1975 cells assessed as reduction in cell viability measured after 24 hrs by CCK-8 assay; assay type: functional, cell-based; settings: NCI-H1975, 24 h
[5] = molecular target: T2, RAC-alpha serine/threonine-protein kinase; assay: Induction of AKT1 degradation in human NCI-H1975 cells assessed as reduction in AKT1 protein level at 1000 nM incubated for 24 hrs under serum free medium by Western blot analysis relative to control; assay type: cell-based
[6] = molecular target: T1, RAC-gamma serine/threonine-protein kinase; assay: Binding affinity to full length N-terminal His6-sumo tagged AKT3 (unknown origin) expressed Escherichia coli BL21 (DE3) cells by pull-down/ Western blot analysis
[7] = molecular target: T1, RAC-gamma serine/threonine-protein kinase; assay: Binding affinity to full length N-terminal His6-sumo tagged AKT3 (unknown origin) expressed Escherichia coli BL21 (DE3) cells incubated for 2 hrs by pull-down/ LC-MS analysis

Structure (SMILES)	EC50 [1] [µM]	Emax [2] [%]	EC50 [3] [µM]	EC50 [4] [µM]	IC50 (NCI-H1975) [µM]	Emax [5] [%]	Activity [6]	Activity [7]
C[C@@H]1CC(O)c2ncnc(N3CCN(C(=O)[C@H](CNCCCCCCCCCCc4cccc5c4C(=O)N(C4CCC(=O)NC4=O)C5=O)c4ccc(Cl)cc4)CC3)c21 (mixture of isomers)					2.42			
COc1cc(N2CCN(CCCCCCCCCCCCNC(=O)CC34CC5CC(CC(C5)C3)C4)CC2)ccc1Nc1ncc2c(C)cc(=O)n(-c3ccc(NC(=O)C4CC4)cc3)c2n1	> 1		> 1	> 1	> 10			
CC(C)NC[C@@H](C(=O)N1CCN(c2ncnc3c2[C@H](C)C[C@H]3O)CC1)c1ccc(Cl)cc1 [IPATASERTIB]					> 20			
C#CCN(CCCCCCCCCCCCN1CCN(c2ccc(Nc3ncc4c(C)cc(=O)n(-c5cccc(NC(=O)C6CC6)c5)c4n3)c(OC)c2)CC1)C(=O)CC12CC3CC(CC(C3)C1)C2							Active	Active

Results, then the compound that gave them:

EC50 [1] [µM]	Emax [2] [%]	EC50 [3] [µM]	EC50 [4] [µM]	IC50 (NCI-H1975) [µM]	Emax [5] [%]	Activity [6]	Activity [7]	Structure (SMILES)
> 1	77	> 1	0.057					COc1cc(N2CCN(CCCCCCCCCCCCNC(=O)CC34CC5CC(CC(C5)C3)C4)CC2)ccc1Nc1ncc2c(C)cc(=O)n(-c3cccc(NC(=O)C(C)(C)C)c3)c2n1
> 1	77	> 1	0.102					COc1cc(N2CCN(CCCCCCCCCCCCNC(=O)CC34CC5CC(CC(C5)C3)C4)CC2)ccc1Nc1ncc2c(C)cc(=O)n(-c3cccc(N)c3)c2n1
> 1	68	> 1	0.067					COc1cc(N2CCN(CCCCCCCCCCCCNC(=O)CC34CC5CC(CC(C5)C3)C4)CC2)ccc1Nc1ncc2c(C)cc(=O)n(-c3cccc(NC(C)=O)c3)c2n1
> 1		> 1	> 1					C=CC(=O)Nc1cccc(-n2c(=O)cc(C)c3cnc(Nc4ccc(N5CCN(C(=O)CCCCCCCCCCCNC(=O)CC67CC8CC(CC(C8)C6)C7)CC5)cc4OC)nc32)c1
> 1		> 1	> 1					C=CC(=O)Nc1ccc(-n2c(=O)cc(C)c3cnc(Nc4ccc(N5CCN(CCCCCCCCCCCCNC(=O)CC67CC8CC(CC(C8)C6)C7)CC5)cc4OC)nc32)cc1
> 1	55	0.3	0.564		55			C=CC(=O)Nc1cccc(-n2c(=O)cc(C)c3cnc(Nc4ccc(N5CCN(CCOCCOCCNC(=O)CC67CC8CC(CC(C8)C6)C7)CC5)cc4OC)nc32)c1
